Molecular target: NSP14 (Severe acute respiratory syndrome coronavirus 2, UniProt P0DTD1)
Assay: NSP14 MTase inhibition assay at 37° C. (MTase-Glo SAH detection)
Assay type: biochemical, SARS-CoV-2
Conditions: 0.3 nM NSP14, 2.5 μM SAM, 2.5 μM GpppA RNA, 45 min at 37° C.; read-out: Nsp14 Mtase Inh. IC50
Method: NSP14 MTase assay at 37° C. (0.3 nM NSP14 as final enzyme concentration)
The NSP14 MTase assay at 37° C. is carried out in 384-well flat bottom polystyrene microplates (Greiner, 781075). Per well, 10 μl of 1×NSP14 reaction buffer (50 mM Tris-HCl, pH 7.5, 6 mM KCl, 1.25 mM MgCl2, 1 mM DTT, and 0.01% Tween-20) are dispensed in columns 1-23 using a Thermo Multidrop Combi dispenser (Thermo Scientific). 0.1 μl of serially diluted compounds in DMSO are dispensed into columns 1-22 of the assay microplates with a Janus 384 MDT NanoHead (PerkinElmer). In wells of column 23, which serve as negative controls, no compounds are added.
The NSP14 reaction is started by adding 4 μl of a 4× substrate solution containing S-adenosyl methionine (SAM, 10 μM) and GpppA RNA (10 μM) prepared in 1×NSP14 reaction buffer. Any addition of reagents is followed by a 30 second centrifugation at 500×g to ensure that all liquid was collected at the bottom of the well. The final concentrations of NSP14, SAM, and GpppA RNA are 0.3 nM, 2.5 μM, and 2.5 μM, respectively. The final reaction volume is 16 μl. Plates are sealed and incubated for 45 min at 37° C.
For SAH detection, 1 μl 5× MTase-Glo™ Reagent (Promega) is added to each well, plates are mixed for 1-2 minutes and incubated at room temperature for 30 minutes. 5 μl of room-temperature MTase-Glo™ Detection Solution (Promega) is added to each well, plates are mixed for 1-2 minutes and incubated at room temperature for 30 minutes. Luminescence signals of each well are recorded in relative light units (RLUs) using a Biotek Synergy Neo plate reader (BioTek, Winooski, VT). The SAH production is normalized against the positive control (PK, column 24) and negative control (NK, column 23) as follows: normalized % inhibition=100×(RLUsample-RLUaverageNK)/(RLUaveragePK-RLUaverageNK).

| SMILES | IC50 |
| --- | --- |
| Cc1c(S(=O)(=O)c2ccc3[nH]ncc3c2)cc(C(=O)N[C@@H]2CCN(c3ccc(C(F)(F)F)nn3)C2)n1C [A.76] | 0.44 nM |
| Cc1c(S(=O)(=O)c2ccc3[nH]ncc3c2)cc(C(=O)N[C@@H]2CCN(c3ccc(F)cn3)C2)n1C [A.51] | < 0.15 nM |
| Cc1c(S(=O)(=O)c2ccc3[nH]ncc3c2)cc(C(=O)N[C@@H]2CCN(c3cccc(C(F)F)c3)C2)n1C [A.86] | 2.5 nM |
| Cc1c(S(=O)(=O)c2ccc3[nH]ncc3c2)cc(C(=O)N[C@@H]2CCN(c3cccc(F)c3)C2)n1C [A.87] | 0.75 nM |
| Cc1c(S(=O)(=O)c2ccccc2)cc(C(=O)NCc2c(F)ccc3cnn(C)c23)n1C [A.7, N-((6-fluoro-1-methyl-1H-indazol-7-yl)methyl)-1,5-dimethyl-4-(phenylsulfonyl)-1H-pyrrole-2-carboxamide] | 1.7 nM |
| Cc1c(S(=O)(=O)c2ccc3[nH]ncc3c2)cc(C(=O)N[C@@H]2CCN(c3cccc(C#N)c3C#N)C2)n1C [A.109] | < 0.15 nM |
| Cc1c(S(=O)(=O)c2ccc3[nH]ncc3c2)cc(C(=O)N[C@@H]2CCN(c3ncccc3C(F)(F)F)C2)n1C [A.80] | 1.5 nM |
| Cc1c(S(=O)(=O)c2ccc3[nH]nc(F)c3c2)cc(C(=O)N[C@@H]2CCN(c3ccnnc3)C2)n1C [A.112] | 0.53 nM |
| Cc1c(S(=O)(=O)c2ccc3[nH]ncc3c2)cc(C(=O)NC2CN(c3ncc(F)cn3)C[C@@H]2F)n1C (stereo partly shown) [A.46] | 0.77 nM |
| Cc1c(S(=O)(=O)c2cccc(C#N)c2)cc(C(=O)NCc2cccc3cnn(C)c23)n1C [A.6, 4-(3-cyanophenyl)sulfonyl-1,5-dimethyl-N-[(1-methylindazol-7-yl)methyl]pyrrole-2-carboxamide] | 1.7 nM |
| Cc1c(S(=O)(=O)c2ccccc2)cc(C(=O)NCc2cccnc2N2CCCC2)n1C [A.22] | 67 nM |
| Cc1c(S(=O)(=O)c2ccc3[nH]ncc3c2)cc(C(=O)NC2CCN(c3ncc(F)cn3)CC2)n1C [A.35] | 0.56 nM |
| Cc1c(S(=O)(=O)c2cc(F)c3[nH]nc(F)c3c2)cc(C(=O)N[C@@H]2CCN(c3ncc(F)cn3)C2)n1C [A.67] | 0.38 nM |
| COc1ccc(S(=O)(=O)c2cc(C(=O)NCc3cccc4cnn(C)c34)n(C)c2C)cn1 [A.28] | 119 nM |
| O=C(N[C@@H]1CCN(c2ncc(F)cn2)C1)c1cc(S(=O)(=O)c2ccc3[nH]ncc3c2)c2n1CCC2 [A.68] | 0.36 nM |
| Cc1c(S(=O)(=O)c2ccc3[nH]ncc3c2)cc(C(=O)N[C@@H]2CCN(c3ccnnc3)C2)n1C [A.78] | 0.53 nM |
| Cc1c(S(=O)(=O)c2ccc3[nH]ncc3c2)cc(C(=O)N[C@@H]2CCN(c3ncncc3C#N)C2)n1C [A.121] | 0.3 nM |
| Cc1c(S(=O)(=O)c2ccc3[nH]ncc3c2)cc(C(=O)N[C@@H]2CCN(c3cc(C(F)(F)F)ncn3)C2)n1C [A.94] | 0.15 nM |

Same assay, conditions: 37° C., 0.3 nM NSP14, 2.5 μM SAM, 2.5 μM GpppA RNA; read-out: Nsp14 Mtase Inh. IC50

| SMILES | IC50 |
| --- | --- |
| Cc1c(S(=O)(=O)c2ccc3[nH]ncc3c2)cc(C(=O)NCc2ccn(C3CC3)n2)n1C [B.168] | 172 nM |
| Cc1c(S(=O)(=O)c2cc(F)c3[nH]ncc3c2)cc(C(=O)NCc2c(F)ccc3cnn(C4CC4)c23)n1C [B.63] | < 0.15 nM |
| Cc1c(S(=O)(=O)c2cccc(C#N)c2)cc(C(=O)NCc2c(Cl)cnn2C)n1C [B.183] | 17 nM |
| Cc1c(S(=O)(=O)c2ccc3[nH]ncc3c2)cc(C(=O)NC2CCc3ccc(C(F)(F)F)cc32)n1C (racemic) [B.72] | 33 nM |
| Cc1c(S(=O)(=O)c2ccc3c(c2)CC(=O)N3)cc(C(=O)NCc2cccc3cnn(C)c23)n1C [B.5] | 8.7 nM |
| Cc1c(S(=O)(=O)c2ccc3[nH]ncc3c2)cc(C(=O)NCc2cccc3c(F)nn(C)c23)n1C [B.44] | 0.24 nM |
| Cc1c(S(=O)(=O)c2ccc3[nH]ncc3c2)cc(C(=O)NCc2c[nH]c(=O)c3ncccc23)n1C [B.155] | 0.3 nM |
| Cc1c(S(=O)(=O)c2cc(F)c3[nH]ncc3c2)cc(C(=O)NCc2cccc3cnn(C)c23)n1C [B.9] | 0.53 nM |
| Cn1ncc(Cl)c1CNC(=O)c1cc(S(=O)(=O)c2ccc3[nH]ncc3c2)c2n1CCC2 [B.191] | 8.6 nM |
| Cc1c(S(=O)(=O)c2ccc3[nH]ncc3c2)cc(C(=O)NCc2cnn3ccccc23)n1C [B.163] | 3 nM |
| Cc1c(S(=O)(=O)c2ccc3[nH]nc(F)c3c2)cc(C(=O)NCc2c(F)ccc3c2N(C)C(=O)C3(F)F)n1C [B.105] | 0.15 nM |
| Cc1c(S(=O)(=O)c2ccc3[nH]ncc3c2)cc(C(=O)NC(C)c2ccnn2C)n1C (racemic) [B.172] | 24 nM |
| Cc1cc(S(=O)(=O)c2cc(C(=O)NCc3c(F)ccc4cnn(C5CC5)c34)n(C)c2C)cc2cn[nH]c12 [B.28] | 0.24 nM |
| Cc1c(S(=O)(=O)c2ccc3[nH]ncc3c2)cc(C(=O)NCc2c(F)ccc3c2CCCO3)n1C [B.57] | < 0.15 nM |
| Cc1c(S(=O)(=O)c2ccc3[nH]ncc3c2)cc(C(=O)NCc2c(F)cnn2C)n1C [B.154] | 0.56 nM |
| Cc1c(S(=O)(=O)c2ccc3[nH]ncc3c2)cc(C(=O)NCc2cncc3cnn(C)c23)n1C [B.49] | 0.49 nM |
| Cc1c(S(=O)(=O)c2cc(Cl)cc(C#N)c2)cc(C(=O)NCc2c(Cl)cnn2C)n1C [B.193] | 6.4 nM |

| SMILES | IC50 |
| --- | --- |
| Cc1[nH]c(=O)c2ccccc2c1CNC(=O)c1cc(S(=O)(=O)c2ccc3[nH]nc(F)c3c2)c(C)n1C [B.124] | 0.36 nM |
| Cc1c(S(=O)(=O)c2ccc3[nH]ncc3c2)cc(C(=O)NCc2ccc(F)c3cnn(C)c23)n1C [B.36] | 0.41 nM |
| Cc1cc(C)c(CNC(=O)c2cc(S(=O)(=O)c3ccc4[nH]ncc4c3)c(C)n2C)c(=O)[nH]1 [B.161] | 2.7 nM |
| Cc1c(S(=O)(=O)c2ccc3[nH]ncc3c2)cc(C(=O)NCc2ccn3nccc3c2)n1C [B.141] | 16 nM |
| Cc1c(S(=O)(=O)c2ccc(C(F)(F)F)cc2)cc(C(=O)NCc2cccc3cnn(C)c23)n1C [B.6] | 35 nM |
| Cc1c(S(=O)(=O)c2ccc3[nH]nc(F)c3c2)cc(C(=O)NCc2c(F)ccc3cnn(C4CC4)c23)n1C [B.46] | 0.53 nM |
| Cc1c(S(=O)(=O)c2ccc3[nH]ncc3c2)cc(C(=O)NCc2cncn2C)n1C [B.146] | 29 nM |
| O=C(NCc1c(F)ccc2ncn(C3CC3)c12)c1cc(S(=O)(=O)c2cc(F)c3[nH]ncc3c2)c2n1CCC2 [B.90] | 0.21 nM |
| Cc1cc(C)n(C)c(=O)c1CNC(=O)c1cc(S(=O)(=O)c2ccc3[nH]ncc3c2)c(C)n1C [B.164] | 0.85 nM |
| Cc1nn(C)cc1CNC(=O)c1cc(S(=O)(=O)c2ccc3[nH]ncc3c2)c(C)n1C [B.152] | 20 nM |
| Cc1c(S(=O)(=O)c2ccc3[nH]nc(F)c3c2)cc(C(=O)NCc2cccc3c(F)nn(C4CC4)c23)n1C [B.80] | 1.5 nM |
| Cc1c(S(=O)(=O)c2ccc3ccc(C#N)cc3c2)cc(C(=O)NCc2c(F)ccc3cnn(C)c23)n1C [B.128] | 0.93 nM |
| Cc1c(S(=O)(=O)c2cc(Cl)c3[nH]ncc3c2)cc(C(=O)NCc2cccc3cnn(C4CC4)c23)n1C [B.51] | 0.22 nM |
| Cc1c(S(=O)(=O)c2ccc3[nH]nc(F)c3c2)cc(C(=O)NCc2c(F)ccc3ncn(C4CC4)c23)n1C [B.103] | < 0.15 nM |
| Cc1c(S(=O)(=O)c2ccc3[nH]ncc3c2)cc(C(=O)NCCCOc2ncc(F)cn2)n1C [B.196] | 18 nM |
| Cc1c(S(=O)(=O)c2ccc3[nH]ncc3c2)cc(C(=O)N[C@H]2Cc3ccccc32)n1C (single isomer, unassigned) [B.170] | 2.5 nM |
| Cc1c(S(=O)(=O)c2cc(C3CC3)c3[nH]ncc3c2)cc(C(=O)NCc2cccc3cnn(C4CC4)c23)n1C [B.41] | 50 nM |
